Measurements published in ChEMBL document CHEMBL5512601, “Small-molecule inhibitors targeting apoptosis signal-regulated kinase 1” (Eur J Med Chem, 2023).

Legend:
[1] = molecular target: T1, Mitogen-activated protein kinase kinase kinase 5 (Homo sapiens, UniProt Q99683); assay: Inhibition of ASK1 (unknown origin)
T1 sequence (Q99683 whole entry): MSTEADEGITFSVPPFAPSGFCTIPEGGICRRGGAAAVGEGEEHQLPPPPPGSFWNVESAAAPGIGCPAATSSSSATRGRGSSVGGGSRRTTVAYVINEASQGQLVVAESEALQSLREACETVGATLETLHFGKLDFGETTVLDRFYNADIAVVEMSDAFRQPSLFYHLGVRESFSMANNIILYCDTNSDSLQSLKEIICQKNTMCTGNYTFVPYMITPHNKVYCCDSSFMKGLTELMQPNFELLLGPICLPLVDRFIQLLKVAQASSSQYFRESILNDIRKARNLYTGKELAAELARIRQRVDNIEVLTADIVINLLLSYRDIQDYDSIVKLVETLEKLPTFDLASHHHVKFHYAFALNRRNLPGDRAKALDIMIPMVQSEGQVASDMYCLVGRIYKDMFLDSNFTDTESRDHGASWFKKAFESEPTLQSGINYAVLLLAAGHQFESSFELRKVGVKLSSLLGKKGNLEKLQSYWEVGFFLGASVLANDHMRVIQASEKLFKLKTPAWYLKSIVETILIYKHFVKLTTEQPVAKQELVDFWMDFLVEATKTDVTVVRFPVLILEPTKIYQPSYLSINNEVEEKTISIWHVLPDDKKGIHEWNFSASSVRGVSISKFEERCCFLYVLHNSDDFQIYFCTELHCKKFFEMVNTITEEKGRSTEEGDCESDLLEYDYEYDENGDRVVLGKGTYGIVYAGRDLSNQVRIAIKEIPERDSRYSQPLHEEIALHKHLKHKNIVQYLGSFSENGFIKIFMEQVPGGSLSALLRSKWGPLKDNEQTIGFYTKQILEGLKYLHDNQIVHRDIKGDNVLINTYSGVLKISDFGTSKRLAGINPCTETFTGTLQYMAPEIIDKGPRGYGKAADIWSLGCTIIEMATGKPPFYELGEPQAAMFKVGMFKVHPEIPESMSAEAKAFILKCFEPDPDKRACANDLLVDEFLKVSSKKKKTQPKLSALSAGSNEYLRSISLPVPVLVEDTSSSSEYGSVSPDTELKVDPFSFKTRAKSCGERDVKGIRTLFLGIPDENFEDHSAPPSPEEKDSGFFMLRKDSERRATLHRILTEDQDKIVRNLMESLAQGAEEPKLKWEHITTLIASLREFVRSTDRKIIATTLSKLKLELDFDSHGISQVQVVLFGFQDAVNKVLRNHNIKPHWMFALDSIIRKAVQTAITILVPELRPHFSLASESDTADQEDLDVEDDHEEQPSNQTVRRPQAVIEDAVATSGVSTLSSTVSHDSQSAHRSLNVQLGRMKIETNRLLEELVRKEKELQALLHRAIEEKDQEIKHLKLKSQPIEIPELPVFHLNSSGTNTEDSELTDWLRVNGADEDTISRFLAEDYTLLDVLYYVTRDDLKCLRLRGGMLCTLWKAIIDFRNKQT

[2] = molecular target: T1, Mitogen-activated protein kinase kinase kinase 5; assay: Inhibition of human ASK1 using STK-substrate biotin as substrate by TR-FRET assay
[3] = molecular target: T1, Mitogen-activated protein kinase kinase kinase 5; assay: Inhibition of human recombinant ASK1 by HTRF assay
[4] = molecular target: T1, Mitogen-activated protein kinase kinase kinase 5; assay: Inhibition of human ASK1
[5] = Toxicity in C57BL/6J mouse harboring SOD1 mutant assessed as animal survival (reference value: 1.06%); conditions: in vivo, read-out: Activity
[6] = molecular target: T1, Mitogen-activated protein kinase kinase kinase 5; assay: Inhibition of ASK1 (unknown origin) preincubated with compound for 30 mins followed by ATP addition and measured after 120 mins by HTRF analysis
[7] = molecular target: T1, Mitogen-activated protein kinase kinase kinase 5; assay: Inhibition of ASK1 (unknown origin) incubated for 0.5 to 5 hrs by TR-FRET assay
[8] = molecular target: T1, Mitogen-activated protein kinase kinase kinase 5; assay: Inhibition of N-terminal his-tagged human ASK1 (649 to 946 residues) expressed in Escherichia coli using [gamma-32p]ATP as substrate by liquid scintillation counting analysis
[9] = Oral bioavailability in Sprague-Dawley rat at 1 mg/kg by LC-MS/MS analysis; format: ADME, organism-based; conditions: in vivo
[10] = Half life in Sprague-Dawley rat at 1 mg/kg, iv by LC-MS/MS analysis; format: ADME, organism-based; conditions: in vivo
[11] = molecular target: T1, Mitogen-activated protein kinase kinase kinase 5; assay: Inhibition of ASK1 in HEK293 cells; format: cell-based
[12] = Apparent permeability of compound across apical to basolateral side in human Caco2 cells; format: ADME, cell-based; conditions: Caco-2
[13] = molecular target: T1, Mitogen-activated protein kinase kinase kinase 5; assay: Inhibition of full length GST-tagged recombinant human ASK1 using MBP as substrate incubated for 20 mins by cell based assay
[14] = molecular target: 3-phosphoinositide-dependent protein kinase 1 (Homo sapiens) (UniProt O15530); assay: Inhibition of PDK1 (unknown origin) at 10 uM relative to control
Sequence of 3-phosphoinositide-dependent protein kinase 1 (Homo sapiens) (O15530 whole entry, looked up): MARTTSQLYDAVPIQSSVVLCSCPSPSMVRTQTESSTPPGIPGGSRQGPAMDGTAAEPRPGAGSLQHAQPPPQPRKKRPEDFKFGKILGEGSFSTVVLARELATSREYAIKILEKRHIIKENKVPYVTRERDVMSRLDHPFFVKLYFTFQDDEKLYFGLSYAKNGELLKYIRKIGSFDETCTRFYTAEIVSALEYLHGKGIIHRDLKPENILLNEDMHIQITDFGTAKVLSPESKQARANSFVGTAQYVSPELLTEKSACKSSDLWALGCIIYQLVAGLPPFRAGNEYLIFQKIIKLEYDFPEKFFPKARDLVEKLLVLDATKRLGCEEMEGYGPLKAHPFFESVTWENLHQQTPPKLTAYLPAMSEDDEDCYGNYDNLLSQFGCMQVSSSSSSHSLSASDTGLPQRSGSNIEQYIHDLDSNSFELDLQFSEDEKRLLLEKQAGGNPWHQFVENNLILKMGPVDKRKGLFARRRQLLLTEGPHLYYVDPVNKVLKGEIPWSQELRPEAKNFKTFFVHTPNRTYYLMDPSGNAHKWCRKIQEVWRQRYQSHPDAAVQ

CC(C)n1cnnc1-c1cccc(N2CCc3ccc(-n4cnc(C5CC5)c4)cc3C2=O)n1
IC50 [1]: 1.83 nM

Cc1ccc(N(C)C(=O)Nc2cccc(-c3nncn3C(C)C)n2)c(F)c1
EC50 [2]: ≤ 5000 nM

CC(C)n1cnnc1-c1cccc(C(=O)Nc2cc(-n3cnc(C4CC4)c3)ccn2)n1
IC50 [3]: 0.7 nM

CC(C)n1cnnc1-c1cccc(NC(=O)c2cc3c(cc2F)CNCc2nc(C4CC4)cn2-3)n1
IC50 [1]: < 10 nM

COc1cc2nncc(Oc3ccc(NC(=O)c4cn(C(C)C)c5c(c4=O)CCC=C5)cc3)c2cc1OC
IC50 [4]: 6 nM
survival [5]: 1.08%

CC(C)n1cnnc1-c1nc(NC(=O)c2cc3c(cc2F)CCCc2nc(C4CC4)cn2-3)cs1
IC50 [1]: > 50 nM

CC(C)n1cnnc1-c1cccc(NC(=O)c2cc3c(cc2F)CNCCc2c(C4CC4)ncn2-3)n1
IC50 [1]: < 10 nM

Cc1ccc(-n2ccn(-c3cccc(-c4nncn4C(C)C)n3)c2=O)c(F)c1
EC50 [2]: ≤ 500 nM
IC50 [3]: 50 nM

CC(C)n1cnnc1-c1cccc(-c2cn(C)c3ccc(-n4cnc(C5CC5)c4)cc3c2=O)n1
IC50 [6]: 1.37 nM

Cc1cc2c(cc1-n1cnc(C3CC3)c1)C(=O)N(c1cccc(-c3nncn3C(C)C)n1)CC2
IC50 [1]: 2.2 nM

CC(C)n1cnnc1-c1cccc(N2CCOc3ccc(-n4cnc(C5CC5)c4)cc3C2=O)n1
IC50 [6]: 4.26 nM

Cc1cc(F)c(C(=O)Nc2cccc(-c3nnc4n3CCOC4)n2)cc1-n1cnc(C2CC2)c1
IC50 [7]: 6.1 nM

CC(C)n1cnnc1-c1cccc(NC(=O)c2cc3c(cc2F)CNCc2c(C4CC4)ncn2-3)n1
IC50 [1]: < 10 nM

CC(C)n1cnnc1-c1cccc(N2C(=O)c3ccc(-n4cnc(C5CC5)c4)cc3C2(C)C)n1
IC50 [1]: 3.22 nM

Cc1ccc(-c2cnc(-c3cccc(-c4nncn4C(C)C)n3)o2)c(F)c1
IC50 [3]: ≤ 50 nM

Cc1cc(F)c(C(=O)Nc2cccc(-c3nnc4ccccn34)n2)cc1-n1cnc(C2CC2)c1
IC50 [7]: 7.8 nM

Cc1ccc(NC(=O)Nc2cccc(-c3nncn3C(C)C)n2)c(F)c1
EC50 [2]: ≤ 500 nM

C=C(C)[C@@H]1CC[C@]2(C(=O)On3nnc4ccccc43)CC[C@]3(C)[C@H](C[C@@H](O)[C@@H]4[C@@]5(C)C(CC(=O)OCC)OC(C)(C)C5CC[C@]43C)[C@@H]12 (stereo partly specified)
IC50 [8]: 5.08 nM

Cc1ccc(-c2cnc(-c3cccc(-c4nncn4C(C)C)n3)s2)c(F)c1
IC50 [3]: 50 nM

COc1cc2ccn(-c3cccc(-c4nncn4C(C)C)n3)c(=O)c2cc1-n1cnc(C2CC2)c1
IC50 [1]: 1.65 nM

CC(C)n1cnnc1-c1cccc(NC(=O)c2cccc(-n3cnc(C4CC4)c3)c2)n1
bioavailability [9]: 11%
half-life [10]: 35.4 min
EC50 [11]: 3.4 nM
Papp A→B [12]: 31 nm/s

C=C(C)[C@@H]1CC[C@]2(C(=O)N(CCOCCOn3nnc4ccccc43)C(=O)OC(C)(C)C)CC[C@]3(C)[C@H](C[C@H]4OC(=O)C[C@@H](O)[C@]5(C)[C@@H]4[C@@]3(C)CC[C@H]5C(=C)C)[C@@H]12
IC50 [8]: 2.02 nM

C=C(C)[C@@H]1CC[C@]2(C(=O)O)CC[C@]3(C)[C@H](C[C@H]4OC(=O)C[C@@H](O)[C@]5(C)[C@@H]4[C@@]3(C)CC[C@H]5C(=C)C)[C@@H]12
IC50 [8]: 370 nM

CC(C)n1cnnc1-c1cccc(-n2ncc3ccc(-n4cnc(C5CC5)c4)cc3c2=O)n1
IC50 [6]: 0.9 nM

CC(C)n1cnnc1-c1cccc(N2Cc3cc(-n4cnc(C5CC5)c4)ccc3C2=O)n1
IC50 [1]: 1.78 nM

CC(C)n1nnnc1-c1cccc(N2C(=O)c3cc(-n4cnc(C5CC5)c4)ccc3C2(C)C)n1
IC50 [1]: 5.09 nM
IC50 [7]: 3.9 nM

CC(C)n1cnnc1-c1cccc(NC(=S)Nc2ccccn2)n1
EC50 [2]: ≤ 500 nM
IC50 [3]: 50 nM

Cc1cc(F)c(C(=O)Nc2cccc(-c3nnc4n3CCS(=O)(=O)C4)n2)cc1-n1cnc(C2CC2)c1
IC50 [7]: 10 nM

C=C(C)[C@@H]1CC[C@]2(C(=O)O)CC[C@]3(C)[C@H](C[C@@H](O)[C@@H]4[C@@](C)([C@H](O)CC(=O)O)[C@H](C(=C)C)CC[C@]43C)[C@@H]12
IC50 [8]: 407 nM

Cc1cc(F)c(C(=O)Nc2cccc(-c3nnc4n3CCCC4)n2)cc1-n1cnc(C2CC2)c1
IC50 [13]: ≤ 100 nM
IC50 [7]: 18 nM

CC(C)n1cnnc1-c1cccc(N2Cc3ccc(-n4cnc(C5CC5)c4)cc3C2=O)n1
IC50 [1]: 0.93 nM

CC(C)n1cnnc1-c1cccc(NC(=O)c2cc3c(cc2F)CCCc2nc(C4CC4)cn2-3)n1
IC50 [1]: < 10 nM

C=C(C)[C@@H]1CC[C@]2(C(=O)O)CC[C@]3(C)[C@H](C[C@@H](O)[C@@H]4[C@@]5(C)C(CC(=O)O)OC(C)(C)C5CC[C@]43C)[C@@H]12 (stereo partly specified)
IC50 [8]: 449 nM

CC(C)n1cnnc1-c1nc(NC(=O)c2cc3c(cc2F)C(=O)NCc2nc(C4CC4)cn2-3)cs1
IC50 [1]: > 50 nM

CC(C)n1cnnc1-c1nc(NC(=O)c2cc3c(cc2F)CNCc2nc(C4CC4)cn2-3)cs1
IC50 [1]: > 50 nM

CC(C)n1cnnc1-c1cccc(-c2coc3ccc(-n4cnc(C5CC5)c4)cc3c2=O)n1
IC50 [6]: 1.14 nM

Cc1cc(F)c(C(=O)Nc2cccc(-c3nnc4ncncn34)n2)cc1-n1cnc(C2CC2)c1
IC50 [7]: 14 nM

CC(C)n1cnnc1-c1cccc(NC(=O)c2cc3c(cc2F)COCc2nc(C4CC4)cn2-3)n1
IC50 [1]: < 10 nM

COc1cc2nccc(Oc3ccc(NC(=O)c4cn(C(C)C)c5c(c4=O)CCC=C5)cc3)c2cc1OC
IC50 [4]: 6 nM
survival [5]: 1.09%

Cc1cc(F)c(C(=O)Nc2cccc(-c3nnc4n3CCCC4)n2)cc1-n1cc(C2CC2)nn1
IC50 [13]: > 100 nM

CC(C)n1cnnc1-c1cccc(-n2cnc3ccc(-n4cnc(C5CC5)c4)cc3c2=O)n1
IC50 [6]: 11.1 nM

CC(C)n1cnnc1-c1cccc(N2CC(C)(C)c3ccc(-n4cnc(C5CC5)c4)cc3C2=O)n1
IC50 [1]: 5.91 nM

CC(C)n1cnnc1-c1cccc(NC(=O)c2cc(-n3cnc(C4CC4)c3)ccn2)c1
inhibition [14]: 0.04%

CC(C)n1cnnc1-c1cccc(-n2ccc3ccc(-n4cnc(C5CC5)c4)cc3c2=O)n1
IC50 [1]: 2.71 nM

C[C@H](CO)n1cnnc1-c1cccc(N2CCN(c3ccc(C(=O)N4CCCCC4)cn3)C2=O)n1
EC50 [2]: ≤ 50 nM
IC50 [3]: ≤ 50 nM

Cc1cc(F)c(C(=O)Nc2cccc(-c3nnc4n3CCCC4)n2)cc1-n1cnc(C2CC2)n1
IC50 [13]: ≤ 100 nM

Cc1cc(F)c(C(=O)Nc2cccc(-c3nnc4sccn34)n2)cc1-n1cnc(C2CC2)c1
IC50 [7]: 4.1 nM

Cc1cc(F)c(C(=O)Nc2cccc(-c3nnc4[nH]ccn34)n2)cc1-n1cnc(C2CC2)c1
IC50 [7]: 6.7 nM

Cn1nc(C(F)(F)F)c2cc(C(=O)Nc3cccc(-c4nncn4C4CC4)n3)c(=O)[nH]c21
IC50 [1]: 2660 nM
inhibition [14]: 42.9%

Cc1cc(F)c(C(=O)Nc2cccc(-c3nnc4n3CCNC4)n2)cc1-n1cnc(C2CC2)c1
IC50 [7]: 47.8 nM
